Measured values taken from US11660265B2, “Method of rapidly achieving therapeutic concentrations of triptans for treatment of migraines and cluster headaches” (ZP Opco, Inc., priority 2018, dated 2023).
≈ marks a conversion by molar mass, not a printed value. Read-outs that look alike come from different tables or passages of the source. Each block holds one compound with its values, some of them ahead of it.

Columns and labels:
[1] = Phase 1 human PK study (plasma zolmitriptan, N-desmethyl zolmitriptan, sumatriptan)
Protocol: The final treatment administered was 3.8 mg on a 10 cm^2 patch using an applicator with 0.52 Joule of application energy in the intracutaneous microneedle system described herein. The products tested were:
This was a single-center, open-label, randomized five-way crossover study (Part 1) followed by a sequential study of two additional treatments (Parts 2 and 3). After obtaining informed consent and establishing eligibility, each subject received each of the seven study treatments once, followed by in-clinic monitoring and extensive blood sample collection for pharmacokinetic analysis. […] Plasma samples from the initial dosing days were sent to the analytical laboratory for analysis, and tolerability for each of the dose levels was summarized. […] During Part 3, subjects received a single 3.8 mg patch (applied with a 0.52 J applicator) and also completed identical procedures to the previous dosing days. After completion of the seven dosing days, subjects were assessed one final time and dismissed from the study.
Twenty subjects were enrolled in the study, 10 males and 10 females. The subjects mean age was 29 years±3.5 years with a mean BMI of 24.4±3.5.
PK parameters were summarized by treatment group using descriptive statistics (arithmetic means, standard deviations, coefficients of variation, sample size, minimum, maximum, and median).

[2] = cited from earlier work; for Bioavailability: oral tablet
migraine = conditions: cited from earlier work; for Pain freedom at 2 hours / Pain relief at 2 hours: lowest oral dose
[3] = molecular target: T1, recombinant human 5-HT1B receptors (Homo sapiens, UniProt P28222); assay: Ligand-receptor binding kinetics, 3H-5-carboxamidotryptamine competition, CHO-K1 membranes
T1 construct: expressed in transfected cells; host or cells: CHO-K1
T1 sequence (P28222 whole entry): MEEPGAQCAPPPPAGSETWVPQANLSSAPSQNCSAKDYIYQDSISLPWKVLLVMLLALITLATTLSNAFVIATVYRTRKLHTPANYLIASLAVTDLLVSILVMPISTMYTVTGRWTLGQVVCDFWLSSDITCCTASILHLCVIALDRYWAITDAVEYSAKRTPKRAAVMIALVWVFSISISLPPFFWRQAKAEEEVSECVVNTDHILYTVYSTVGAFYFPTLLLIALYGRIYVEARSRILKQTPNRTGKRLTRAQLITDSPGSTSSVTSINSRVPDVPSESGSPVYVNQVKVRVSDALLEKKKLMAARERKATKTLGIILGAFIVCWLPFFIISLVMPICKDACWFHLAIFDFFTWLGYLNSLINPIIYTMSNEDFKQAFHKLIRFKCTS
Protocol: (§1) Membrane preparations were derived from transfected CHO-K1 cells expressing recombinant human 5-HT1B and 5-HT1D receptors. […] After incubating for various lengths of time, membranes were washed by filtration and residual ^3H counts were determined on a microplate scintillation counter. On-rate constant (kon), off-rate constant (koff), and equilibrium dissociation constant (KD) were determined using nonlinear regression on Prism 4 (GraphPad), and Xlfit (IDBM) software. The following formulae were used in calculating additional parameters using previously derived^2 pharmacokinetic data in healthy human volunteers. Residence time for each ligand on 5-HT1B and 5-HT1D receptors=1/koff.

[4] = molecular target: T2, recombinant human 5-HT1D receptors (Homo sapiens, UniProt P28221); assay: as above
T2 construct: expressed in transfected cells; host or cells: CHO-K1
T2 sequence (P28221 whole entry): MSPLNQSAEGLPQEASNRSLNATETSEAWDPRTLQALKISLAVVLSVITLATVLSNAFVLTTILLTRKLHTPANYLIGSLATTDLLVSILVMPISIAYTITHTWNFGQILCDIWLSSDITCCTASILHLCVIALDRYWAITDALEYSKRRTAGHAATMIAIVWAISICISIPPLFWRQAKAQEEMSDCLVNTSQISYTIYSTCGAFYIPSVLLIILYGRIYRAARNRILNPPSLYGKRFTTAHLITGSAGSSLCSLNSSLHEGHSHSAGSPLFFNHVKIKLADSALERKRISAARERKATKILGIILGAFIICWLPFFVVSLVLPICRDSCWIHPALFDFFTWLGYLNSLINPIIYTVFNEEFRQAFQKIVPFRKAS
Protocol: as §1

in vivo = assay: in vivo; parameters: species or system swine; conditions: Yorkshire, pig, iv
Protocol: The M207 patch was tested in swine. Intravenously administered zolmitriptan was used as a control. The inner thigh of the swine was used as the site of administration.
The low limit of quantitation (LLOQ) and high-limit of quantitation (HLOQ) were 0.1 and 1000 ng/mL, respectively. A four minute method utilizing high performance liquid chromatography-electrospray ionization-tandem mass spectrometry (HPLC-ESI-MS/MS) was developed for quantitation of zolmitriptan and its two major metabolites in HGP plasma. The instrumentation consist of Agilent® 1200 pumps, CTC PAL® Autosampler with cooling stack, AB Sciex® TurboV® ESI source, and API 4000® mass spectrometer.
All plasma samples and standards were first protein precipitated using 100% methanol and then diluted with 30% solution of acetonitrile at 1:2 ratio (Plasma: 30% ACN), 20 μL of this solution was injected into autosample. The autosample was equipped with a 100 μL syringe and a 100 μL loop. […]
The HPLC method used was a reversed phase gradient method (0.0 min, 10% B; 0.5 min, 10% B; 1.0 min, 40% B; 1.7 min, 40% B; 2.1 min, 10% B; 4.0 min, 10% B). […] During the mass spectrometer acquisition, eleven MRM transitions were monitored. […] The peak areas under each corresponding MRM transitions were summed and compared to that of spiked standard plasma samples to calculated concentration for each sample. […]

[5] = Solubility of zolmitriptan in various acids; format: physicochemical; conditions: 5 °C, thermodynamic from solid, 2-8° C.
From the text: The suspension was then centrifuged.

5HT1B/1D = conditions: cited from earlier work
[6] = plasma N-desmethyl zolmitriptan metabolite
[7] = plasma N-desmethyl zolmitriptan metabolite, in ng·h/mL
[8] = both, human, in vivo, AUC0-2 hr (SD)
[9] = both, human, in vivo, AUC0-last (SD)
[10] = both, human, in vivo, AUC2 hrs, Mean
[11] = both, human, in vivo, AUCinf, Mean
[12] = both, human, in vivo, Cmax (SD)
[13] = both, human, in vivo, Cmax, Mean
[14] = both, human, in vivo, Tmax Med (Range)
[15] = both, human, in vivo, t1/2, Mean

Compound: zolmitriptan [Zolmitriptan 2.5 mg Oral Tablet]
- AUC2 hrs, Mean [1, 6]: 2.31 ng·h/mL
- AUC2 hrs, Median [1, 6]: 2.24 ng·h/mL
- Cmax, Mean [1, 6]: 2.08 ng/mL
- Cmax, Median [1, 6]: 2.04 ng/mL
- AUCinf, Mean [1, 7]: 14.55
- AUCinf, Median [1, 7]: 14.31
- AUCt, Mean [1, 7]: 13.71
- AUCt, Median [1, 7]: 13.76

Compound: CN(C)CCc1c[nH]c2ccc(C[C@H]3COC(=O)N3)cc12 [orally disintegrating tablets, zolmitriptan]
- Tmax ([2]; orally disintegrating tablets): about 3 hours

Compound: CN(C)CCc1c[nH]c2ccc(C[C@H]3COC(=O)N3)cc12 [nasal treatment of zolmitriptan, zolmitriptan]
- Patients pain free at 1 hour (migraine; nasal treatment): about 10%

- Kd [3]: 1470 pM
- koff ([3]; read-out: koff (converted)): 0.00127 s⁻¹
- kon ([3]; read-out: kon (converted)): 883000 M⁻¹ s⁻¹
- Kd [4]: 340 pM
- koff ([4]; read-out: koff (converted)): 0.001 s⁻¹
- kon ([4]; read-out: kon (converted)): 2.9e+06 M⁻¹ s⁻¹
- Tmax (in vivo): 1 min
- AUC(0-t) ([1]; both, human, in vivo, 2.5 mg, AUC2 hrs Mean (SD)): 4.72 ng·h/mL
- AUC(0-inf) ([1]; both, human, in vivo, 2.5 mg, AUCinf Mean (SD)): 27.2 ng·h/mL
- Cmax ([1]; both, human, in vivo, 2.5 mg, Cmax Mean (SD)): 3.77 ng/mL
- half-life ([1]; both, human, in vivo, 2.5 mg, t1/2 Mean (SD)): 3.27 h
- Tmax ([1]; both, human, in vivo, 2.5 mg, tmax Median (Range)): 1 h
- half-life ([1]; both, human, in vivo, t1/2 Mean (SD)): 1.53 h
- Tmax ([1]; both, human, in vivo, tmax Median (Range)): 0.3 h
- solubility ([5]; aqueous buffer, 0.1 M citric acid): 88.6 mg/mL (≈ 308 mM)
- solubility ([5]; aqueous buffer, 0.1 M maleic acid): 50.5 mg/mL (≈ 176 mM)
- solubility ([5]; aqueous buffer, 0.1 M succinic acid): 59.1 mg/mL (≈ 206 mM)
- solubility ([5]; aqueous buffer, 0.1 M tartaric acid): 63.3 mg/mL (≈ 220 mM)
- solubility ([5]; simulated gastric fluid, 0.1 M HCl): 33.3 mg/mL (≈ 116 mM)
Compound: CN(C)CCc1c[nH]c2ccc(C[C@H]3COC(=O)N3)cc12 [Zolmitriptan, zolmitriptan]
- Pain freedom at 2 hours (migraine): 29%
- Pain relief at 2 hours (migraine): 62%
- Tmax ([2]; nasal administration): about 1.5 hours

- AUC(0-t) [1, 8]: 70.9 ng·h/mL
- AUC(0-t) [1, 9]: 101 ng·h/mL
- AUC(0-t) [1, 10]: 70.9 ng·h/mL
- AUC(0-inf) [1, 11]: 105 ng·h/mL
- Cmax [1, 12]: 88.8 ng/mL
- Cmax [1, 13]: 88.8 ng/mL
- Tmax [1, 14]: 0.167 h
- half-life ([1]; both, human, in vivo, sc, t1/2 Mean (SD)): 1.14 h
- Tmax ([1]; both, human, in vivo, sc, tmax Median (Range)): 0.167 h
- half-life [1, 15]: 1.14 h
Compound: CNS(=O)(=O)Cc1ccc2[nH]cc(CCN(C)C)c2c1 [Sumatriptan, sumatriptan]
- 24-hour recurrence rate (migraine; among those who achieved headache resolution, 6 mg, different trial): 38%
- Tmax ([2]; conventional oral tablet): about 2 hours
- Bioavailability [2]: about 15%

Compound: CNS(=O)(=O)CCc1ccc2[nH]cc(C3CCN(C)CC3)c2c1 [naratriptan]
- Pain freedom at 2 hours (migraine): 18%
- Pain relief at 2 hours (migraine): 49%

- AUC0-last / Dose ([1]; both, human, in vivo): 8.6 ng·h/mL/mg
- Time to peak plasma concentration of the N-desmethyl metabolite ([1]; both, human, in vivo): 2.7 h
- Tmax of N-desmethyl metabolite ([1]; both, human, in vivo): 2.71 h
- Tmax, Mean ([1]; both, human, in vivo): 1.79 h
- AUC(0-t) [1, 8]: 4.7 ng·h/mL
- AUC(0-t) ([1]; both, human, in vivo, AUC0-last): 22.2 ng·h/mL
- AUC(0-t) [1, 9]: 22.2 ng·h/mL
- AUC(0-t) [1, 10]: 4.72 ng·h/mL
- AUC(0-t) ([1]; both, human, in vivo, AUC2 hrs, Median): 4.92 ng·h/mL
- AUC(0-inf) [1, 11]: 27.2 ng·h/mL
- AUC(0-inf) ([1]; both, human, in vivo, AUCinf, Median): 27.1 ng·h/mL
- AUC(0-t) ([1]; both, human, in vivo, AUCt, Mean): 22.2 ng·h/mL
- AUC(0-t) ([1]; both, human, in vivo, AUCt, Median): 22.6 ng·h/mL
- Cmax ([1]; both, human, in vivo, Cmax): 3.8 ng/mL
- Cmax [1, 12]: 3.8 ng/mL
- Cmax [1, 13]: 3.77 ± 1.51 ng/mL
- Cmax ([1]; both, human, in vivo, Cmax, Median): 3.7 ng/mL
- Tmax ([1]; both, human, in vivo, Tmax): 1.8 ± 1.27 h
- Tmax ([1]; both, human, in vivo, Tmax (range), median): 1 h
- Tmax [1, 14]: 1 h
- Tmax ([1]; both, human, in vivo, Tmax, Mean): 1.79 h
- Tmax ([1]; both, human, in vivo, Tmax, Median): 1 h
- half-life [1, 15]: 3.27 ± 0.8 h
- half-life ([1]; both, human, in vivo, t1/2, Median): 3.28 h
Compound: CN(C)CCc1c[nH]c2ccc(C[C@H]3COC(=O)N3)cc12 [Zolmitriptan 2.5 mg Oral Tablet, zolmitriptan]
- Reduction of Cmax and AUC by administration with food ([2]; conventional release tablets): 13-16%
- Bioavailability [2]: 41 and 48%

Compound: CNCCc1c[nH]c2ccc(C[C@H]3COC(=O)N3)cc12 [N-desmethyl zolmitriptan]
- Kd [3]: 920 pM
- koff [3]: 0.000833 s⁻¹
- kon [3]: 900000 M⁻¹ s⁻¹
- Kd [4]: 430 pM
- koff [4]: 0.0009 s⁻¹
- kon [4]: 2.1e+06 M⁻¹ s⁻¹
- 5HT1B/1D potency relative to the parent (5HT1B/1D): 2 to 6 times
